# Results taken from patent US20250223268A1, “4-Methylsulfonylbenzamide Compound, Preparation Method, Herbicidal Composition And Use” (Jiangsu Flag Chemical Industry Co., Ltd., priority 2022, published 2025).
# Key:
# Assay in all cases: Greenhouse herbicidal activity assay, post-emergence
# Type in all cases: in vivo
# Details in all cases: Post-emergence test, rate 150 g a.i./hm^2, grade by fresh weight inhibition rate
# Cyperus iria = test system: Cyperus iria
# Outline: (§1)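 Foliar spray at 3-6 leaves; pot-grown in nutrient soil in growth chamber; air-dried post-spray. Read-out at 14-21 d: fresh weight inhibition, graded A (≥80% to 100%) down to E (<20%); NT = not tested.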
# Digitaria sanguinalis = test system: Digitaria sanguinalis
# Outline: as §1
# Echinochloa crusgalli = test system: Echinochloa crusgalli
# Outline: as §1
# Eclipta prostrata = test system: Eclipta prostrata
# Outline: as §1
# Leptochloa chinensis = test system: Leptochloa chinensis
# Outline: as §1
Compound,"Control efficacy grade, Cyperus iria (Cyperus iria)","Control efficacy grade, Digitaria sanguinalis (Digitaria sanguinalis)","Control efficacy grade, Echinochloa crusgalli (Echinochloa crusgalli)","Control efficacy grade, Eclipta prostrata (Eclipta prostrata)","Control efficacy grade, Leptochloa chinensis (Leptochloa chinensis)","pest or weed control at 150 g/ha (Cyperus iria; Cyperus iria, read-out: Control efficacy grade, Cyperus iria) [%]","pest or weed control at 150 g/ha (Digitaria sanguinalis; Digitaria sanguinalis, read-out: Control efficacy grade, Digitaria sanguinalis) [%]","pest or weed control at 150 g/ha (Echinochloa crusgalli; Echinochloa crus-galli, read-out: Control efficacy grade, Echinochloa crusgalli) [%]","pest or weed control at 150 g/ha (Eclipta prostrata; Eclipta prostrata, read-out: Control efficacy grade, Eclipta prostrata) [%]","pest or weed control at 150 g/ha (Leptochloa chinensis; Dinebra chinensis, read-out: Control efficacy grade, Leptochloa chinensis) [%]"
CCc1nnc(NC(=O)c2ccc(S(C)(=O)=O)c([S+]([O-])CC(F)(F)F)c2Cl)o1 (racemic) [Compound 3-440],A (Fresh weight inhibition rate≥80% to 100%),A (Fresh weight inhibition rate≥80% to 100%),A (Fresh weight inhibition rate≥80% to 100%),A (Fresh weight inhibition rate≥80% to 100%),A (Fresh weight inhibition rate≥80% to 100%),,,,,
CCc1nnc(NC(=O)c2ccc(S(C)(=O)=O)c([S+]([O-])CC(F)F)c2Cl)o1 (racemic) [Compound 3-445],A (Fresh weight inhibition rate≥80% to 100%),A (Fresh weight inhibition rate≥80% to 100%),A (Fresh weight inhibition rate≥80% to 100%),A (Fresh weight inhibition rate≥80% to 100%),A (Fresh weight inhibition rate≥80% to 100%),,,,,
C=CC[S+]([O-])c1c(S(C)(=O)=O)ccc(C(=O)Nc2nnc(CC)o2)c1Cl (racemic) [Compound 3-455],A (Fresh weight inhibition rate≥80% to 100%),A (Fresh weight inhibition rate≥80% to 100%),A (Fresh weight inhibition rate≥80% to 100%),A (Fresh weight inhibition rate≥80% to 100%),A (Fresh weight inhibition rate≥80% to 100%),,,,,
CCc1nnc(NC(=O)c2ccc(S(C)(=O)=O)c([S+]([O-])CCCl)c2Cl)o1 (racemic) [Compound 3-495],A (Fresh weight inhibition rate≥80% to 100%),A (Fresh weight inhibition rate≥80% to 100%),A (Fresh weight inhibition rate≥80% to 100%),A (Fresh weight inhibition rate≥80% to 100%),A (Fresh weight inhibition rate≥80% to 100%),,,,,
CC(C)c1nnc(NC(=O)c2ccc(S(C)(=O)=O)c([S+]([O-])CC3CC3)c2Cl)o1 (racemic) [Compound 3-531],A (Fresh weight inhibition rate≥80% to 100%),A (Fresh weight inhibition rate≥80% to 100%),A (Fresh weight inhibition rate≥80% to 100%),A (Fresh weight inhibition rate≥80% to 100%),A (Fresh weight inhibition rate≥80% to 100%),,,,,
CC(C)c1nnc(NC(=O)c2ccc(S(C)(=O)=O)c([S+]([O-])C3CC3)c2Cl)o1 (racemic) [Compound 3-536],A (Fresh weight inhibition rate≥80% to 100%),B (Fresh weight inhibition rate≥260% to <80%),A (Fresh weight inhibition rate≥80% to 100%),A (Fresh weight inhibition rate≥80% to 100%),A (Fresh weight inhibition rate≥80% to 100%),,,,,
CC(C)c1nnc(NC(=O)c2ccc(S(C)(=O)=O)c([S+]([O-])C3CCC3)c2Cl)o1 (racemic) [Compound 3-541],A (Fresh weight inhibition rate≥80% to 100%),B (Fresh weight inhibition rate≥260% to <80%),C (Fresh weight inhibition rate≥40% to <60%),A (Fresh weight inhibition rate≥80% to 100%),A (Fresh weight inhibition rate≥80% to 100%),,,,,
CC(C)c1nnc(NC(=O)c2ccc(S(C)(=O)=O)c([S+]([O-])CC(F)(F)F)c2Cl)o1 (racemic) [Compound 3-556],A (Fresh weight inhibition rate≥80% to 100%),B (Fresh weight inhibition rate≥260% to <80%),B (Fresh weight inhibition rate≥260% to <80%),A (Fresh weight inhibition rate≥80% to 100%),A (Fresh weight inhibition rate≥80% to 100%),,,,,
CCC[S+]([O-])c1c(S(C)(=O)=O)ccc(C(=O)Nc2nnc(C3CC3)o2)c1Cl (racemic) [Compound 3-616],A (Fresh weight inhibition rate≥80% to 100%),A (Fresh weight inhibition rate≥80% to 100%),A (Fresh weight inhibition rate≥80% to 100%),A (Fresh weight inhibition rate≥80% to 100%),A (Fresh weight inhibition rate≥80% to 100%),,,,,
"CC(C)[S+]([O-])c1c(S(C)(=O)=O)ccc(C(=O)Nc2nnc(C3CC3)o2)c1Cl (racemic) [Compound 3-621, 2-chloro-N-(5-cyclopropyl-1,3,4-oxadiazol-2-yl)-3-(isopropylsulfinyl)-4-(methylsulfonyl)benzamide]",,,,,,80 to 100,80 to 100,80 to 100,80 to 100,80 to 100
CCCC[S+]([O-])c1c(S(C)(=O)=O)ccc(C(=O)Nc2nnc(C3CC3)o2)c1Cl (racemic) [Compound 3-626],A (Fresh weight inhibition rate≥80% to 100%),A (Fresh weight inhibition rate≥80% to 100%),A (Fresh weight inhibition rate≥80% to 100%),A (Fresh weight inhibition rate≥80% to 100%),A (Fresh weight inhibition rate≥80% to 100%),,,,,
CS(=O)(=O)c1ccc(C(=O)Nc2nnc(C3CC3)o2)c(Cl)c1[S+]([O-])CC1CC1 (racemic) [Compound 3-647],A (Fresh weight inhibition rate≥80% to 100%),A (Fresh weight inhibition rate≥80% to 100%),A (Fresh weight inhibition rate≥80% to 100%),A (Fresh weight inhibition rate≥80% to 100%),A (Fresh weight inhibition rate≥80% to 100%),,,,,
CS(=O)(=O)c1ccc(C(=O)Nc2nnc(C3CC3)o2)c(Cl)c1[S+]([O-])C1CCC1 (racemic) [Compound 3-657],A (Fresh weight inhibition rate≥80% to 100%),A (Fresh weight inhibition rate≥80% to 100%),B (Fresh weight inhibition rate≥260% to <80%),A (Fresh weight inhibition rate≥80% to 100%),A (Fresh weight inhibition rate≥80% to 100%),,,,,
CS(=O)(=O)c1ccc(C(=O)Nc2nnc(C3CC3)o2)c(Cl)c1[S+]([O-])C1CCCCC1 (racemic) [Compound 3-667],A (Fresh weight inhibition rate≥80% to 100%),A (Fresh weight inhibition rate≥80% to 100%),C (Fresh weight inhibition rate≥40% to <60%),A (Fresh weight inhibition rate≥80% to 100%),A (Fresh weight inhibition rate≥80% to 100%),,,,,
C=CC[S+]([O-])c1c(S(C)(=O)=O)ccc(C(=O)Nc2nnc(C3CC3)o2)c1Cl (racemic) [Compound 3-687],A (Fresh weight inhibition rate≥80% to 100%),A (Fresh weight inhibition rate≥80% to 100%),B (Fresh weight inhibition rate≥260% to <80%),A (Fresh weight inhibition rate≥80% to 100%),A (Fresh weight inhibition rate≥80% to 100%),,,,,
CS(=O)(=O)c1ccc(C(=O)Nc2nnc(C3CC3)o2)c(Cl)c1[S+]([O-])C(F)(F)C(F)(F)F (racemic) [Compound 3-692],A (Fresh weight inhibition rate≥80% to 100%),A (Fresh weight inhibition rate≥80% to 100%),A (Fresh weight inhibition rate≥80% to 100%),A (Fresh weight inhibition rate≥80% to 100%),A (Fresh weight inhibition rate≥80% to 100%),,,,,
